Test results from patent US20080214807A1, “Substituted Spiro Compounds and their Use for Producing Drugs” (Gruenenthal GmbH, priority 2005, published 2008).

What was measured:
[1] = target: T1, rat-species vanilloid receptor 1 (VR1/TRPV1) (Rattus norvegicus, UniProt O35433); test: Functional testing on vanilloid receptor 1 (VR1/TRPV1), FLIPR Ca2+ inflow assay in rat dorsal root ganglia cells; assay type: cell-based; conditions: test compound 10 μM; for inhibition at 10 µM / VR1 (rat) (% inhibition compared to 10 μM CP): 5 min incubation, then 100 nM capsaicin, relative to maximum achievable inhibition with 10 μM capsaicin; for inhibition at 10 µM: read-out: VR1 (rat) (% inhibition compared to 10 μM CP); for activation at 10 µM / VR1 (rat) (% stimulation compared to 10 μM CP): Ca2+ inflow relative to signal of 10 μM capsaicin (CP); for activation at 10 µM: read-out: VR1 (rat) (% stimulation compared to 10 μM CP)
T1 construct: endogenous in cells; host or cells: primary cultured rat dorsal root ganglion cells
T1 sequence (O35433 whole entry): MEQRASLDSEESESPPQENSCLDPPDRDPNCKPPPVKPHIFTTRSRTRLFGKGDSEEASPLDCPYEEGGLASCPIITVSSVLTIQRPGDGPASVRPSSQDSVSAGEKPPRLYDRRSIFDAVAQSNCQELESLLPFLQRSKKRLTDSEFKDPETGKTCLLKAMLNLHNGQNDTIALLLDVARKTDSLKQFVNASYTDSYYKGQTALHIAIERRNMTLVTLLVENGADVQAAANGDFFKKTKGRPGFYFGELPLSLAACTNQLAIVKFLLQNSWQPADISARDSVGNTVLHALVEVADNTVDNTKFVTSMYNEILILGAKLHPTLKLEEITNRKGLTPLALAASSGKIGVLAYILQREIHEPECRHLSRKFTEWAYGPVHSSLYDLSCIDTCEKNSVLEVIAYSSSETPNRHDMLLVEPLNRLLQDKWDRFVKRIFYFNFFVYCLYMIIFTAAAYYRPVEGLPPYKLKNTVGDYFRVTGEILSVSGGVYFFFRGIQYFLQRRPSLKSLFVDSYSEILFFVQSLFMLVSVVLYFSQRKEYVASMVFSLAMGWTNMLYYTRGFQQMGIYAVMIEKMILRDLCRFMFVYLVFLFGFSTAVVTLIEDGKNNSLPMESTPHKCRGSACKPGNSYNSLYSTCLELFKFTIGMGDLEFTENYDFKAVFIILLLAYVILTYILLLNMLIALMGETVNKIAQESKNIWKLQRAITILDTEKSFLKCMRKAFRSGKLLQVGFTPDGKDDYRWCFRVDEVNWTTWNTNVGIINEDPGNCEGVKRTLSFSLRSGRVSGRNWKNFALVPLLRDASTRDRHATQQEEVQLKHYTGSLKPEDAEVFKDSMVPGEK
Description: I. Functional Testing Carried out on the Vanilloid Receptor 1 (VRI/TRPV1 Receptor)
(§1) The agonistic or antagonistic effect of the substances to be tested can be determined on the rat-species vanilloid receptor 1 (VR1/TRPV1) using the following assay. According to this assay, the Ca^2+ inflow is quantified through the receptor channel using a Ca^2+-sensitive dye (type Fluo-4, Molecular Probes Europe BV, Leiden, Netherlands) in a fluorescent imaging plate reader (FLIPR, Molecular Devices, Sunnyvale, USA).
Complete medium: 50 mL HAMS F12 nutrient mixture (Gibco Invitrogen GmbH, Karlsruhe, Germany) with
10% by volume of FCS (foetal calf serum, Gibco Invitrogen GmbH, Karlsruhe, Germany, […]);
2 mM L-glutamine (Sigma, Munich, Germany);
1% by weight of AA solution (antibiotic/antimyotic solution, PAA, Pasching, Austria) and 25 ng/ml NGF medium (2.5 S, Gibco Invitrogen GmbH, Karlsruhe, Germany)
Cell culture plate: Poly-D-lysine-coated, black 96 well plates having a clear base (96 well black/clear plate, BD Biosciences, Heidelberg, Germany) were additionally coated with laminin (Gibco Invitrogen GmbH, Karlsruhe, Germany), the laminin being diluted with PBS (Ca—Mg-free PBS, Gibco Invitrogen GmbH, Karlsruhe, Germany) to a concentration of 100 μg/mL. Aliquots having a laminin concentration of 100 μg/mL were removed and stored at −20° C. The aliquots were diluted with PBS in a ratio of 1:10 to 10 μg/mL laminin and in each case 50 μL of the solution were pipetted into a recess in the cell culture plate. The cell culture plates were incubated for at least two hours at 37° C., the excess solution was removed by suction-filtration and the recesses were each washed twice with PBS. The coated cell culture plates were stored with excess PBS which was not removed until just before the feeding of the cells.
Preparation of the Cells:
The vertebral column was removed from decapitated rats and placed immediately into cold HBSS buffer (Hank's buffered saline solution, Gibco Invitrogen GmbH, Karlsruhe, Germany), i.e. buffer located in an ice bath, mixed with 1% by volume (percent by volume) of an AA solution (antibiotic/antimyotic solution, PAA, Pasching, Austria). The vertebral column was cut longitudinally and removed together with fasciae from the vertebral canal. Subsequently, the dorsal root ganglia (DRG) were removed and again stored in cold HBSS buffer mixed with 1% by volume of an AA solution. The DRG, from which all blood remnants and spinal nerves had been removed, were transferred in each case to 500 μL of cold type 2 collagenase (PAA, Pasching, Austria) and incubated for 35 minutes at 37° C. After the addition of 2.5% by volume of trypsin (PAA, Pasching, Austria), incubation was continued for 10 minutes at 37° C. After complete incubation, the enzyme solution was carefully pipetted off and 500 μL of complete medium were added to each of the remaining DRG. The DRG were in each case suspended several times, drawn through cannulae No. 1, No. 12 and No. 16 using a syringe and transferred to a 50 mL Falcon tube which was filled up to 15 mL with complete medium. The contents of each Falcon tube was in each case filtered through a 70 μm Falcon filter element and centrifuged for 10 minutes at 1,200 rpm and room temperature. The resulting pellet was in each case taken up in 250 μL of complete medium and the number of cells determined.
The number of cells in the suspension was set to 3×10^5 per mL and 150 μL of this suspension were in each case introduced into a recess in the cell culture plates coated as described hereinbefore. In the incubator the plates were left for two to three days at 37° C., 5% by volume of CO2 and 95% relative humidity. […]

VR1 (human) = target: T2, VR1 (human) (Homo sapiens, UniProt Q8NER1); test: Functional testing on vanilloid receptor VR1, FLIPR Ca2+ inflow assay (CHO K1 cells stably transfected with the VR1 gene); assay type: cell-based; conditions: test compound 10 μM; for inhibition at 10 µM / activation at 10 µM: CHO-K1; for inhibition at 10 µM / VR1 (human) (% inhibition compared to 10 μM CP): 5 min incubation, then 100 nM capsaicin, relative to maximum achievable inhibition with 10 μM capsaicin; for inhibition at 10 µM: read-out: VR1 (human) (% inhibition compared to 10 μM CP); for activation at 10 µM / VR1 (human) (% stimulation compared to 10 μM CP): Ca2+ inflow relative to signal of 10 μM capsaicin (CP); for activation at 10 µM: read-out: VR1 (human) (% stimulation compared to 10 μM CP)
T2 construct: expressed in transfected cells; host or cells: CHO K1 cells (ECACC)
T2 sequence (Q8NER1 whole entry): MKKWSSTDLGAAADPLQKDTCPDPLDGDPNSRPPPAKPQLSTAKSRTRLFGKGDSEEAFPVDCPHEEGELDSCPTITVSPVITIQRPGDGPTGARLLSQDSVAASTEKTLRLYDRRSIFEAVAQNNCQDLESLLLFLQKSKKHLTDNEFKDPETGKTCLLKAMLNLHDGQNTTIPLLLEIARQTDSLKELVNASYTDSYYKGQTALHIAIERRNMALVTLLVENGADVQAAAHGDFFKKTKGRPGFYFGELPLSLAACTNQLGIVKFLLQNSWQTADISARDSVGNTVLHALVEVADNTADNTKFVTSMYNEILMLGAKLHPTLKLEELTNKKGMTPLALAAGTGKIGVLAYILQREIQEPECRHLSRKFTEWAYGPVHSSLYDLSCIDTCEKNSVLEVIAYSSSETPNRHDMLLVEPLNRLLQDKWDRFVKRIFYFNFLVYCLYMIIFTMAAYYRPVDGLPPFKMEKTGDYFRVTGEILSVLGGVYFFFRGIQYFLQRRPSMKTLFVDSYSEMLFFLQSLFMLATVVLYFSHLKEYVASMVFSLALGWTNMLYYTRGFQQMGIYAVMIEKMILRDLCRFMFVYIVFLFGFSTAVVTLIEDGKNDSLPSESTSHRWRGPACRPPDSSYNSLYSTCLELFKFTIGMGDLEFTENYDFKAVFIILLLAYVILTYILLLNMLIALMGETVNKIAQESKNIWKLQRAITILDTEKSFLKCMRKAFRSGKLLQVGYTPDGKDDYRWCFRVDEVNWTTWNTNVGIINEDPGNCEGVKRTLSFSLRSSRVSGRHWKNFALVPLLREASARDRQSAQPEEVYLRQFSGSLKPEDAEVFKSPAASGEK
Description: II. Functional Testing Carried out on the Vanilloid Receptor (VR1)
as §1, with “can also” for “can”, “the” for “the rat-species”, “(VR1)” for “1 (VR1/TRPV1)”, “the” for “the receptor”
Chinese hamster ovary cells (CHO K1 cells, European Collection of Cell Cultures (ECACC) United Kingdom) were stably transfected with the VR1 gene. For functional testing, these cells were plated out on poly-D-lysine-coated black 96 well plates having a clear base (BD Biosciences, Heidelberg, Germany) at a density of 25,000 cells/well. The cells were incubated overnight at 37° C. and 5% CO2 in a culture medium (Ham's F12 nutrient mixture, 10-% by volume of FCS (foetal calf serum), 18 μg/ml L-proline). The next day the cells were incubated with Fluo-4 (Fluo-4 2 μM, 0.01% by volume of Pluronic F127, Molecular Probes in HBSS (Hank's buffered saline solution), Gibco Invitrogen GmbH, Karlsruhe, Germany) for 30 minutes at 37° C. Subsequently, the plates were washed 3 times with HBSS buffer and after further incubation for 15 minutes at room temperature used for Ca^2+ measurement in a FLI PR assay. The Ca^2+-dependent fluorescence was measured before and after the addition of the substances to be tested (λex wavelength=488 nm, λem=540 nm). Quantification was carried out by measuring the highest fluorescence intensity (FC, Fluorescence Counts) over time.
The FLIPR protocol consists of 2 substance additions. First the compounds to be tested (10 μM) were pipetted onto the cells and the Ca^2+ inflow was compared with the control (capsaicin 10 μM) (% activation based on the Ca^2+ signal after the addition of 10 μM capsaicin). After 5 minutes' incubation, 100 nM of capsaicin were administered and the Ca^2+ inflow was also determined.
Desensitising agonists and antagonists led to suppression of the Ca^2+ inflow. The % inhibition was calculated compared to the maximum achievable inhibition with 10 μM of capsaicin.

Structure (SMILES)	inhibition at 10 µM [1] [%]	activation at 10 µM [1] [%]	inhibition at 10 µM (VR1 (human)) [%]	activation at 10 µM (VR1 (human)) [%]	VR1 (rat) (% inhibition compared to 10 μM CP) [1] [%]	VR1 (rat) (% stimulation compared to 10 μM CP) [1] [%]	VR1 (human) (% inhibition compared to 10 μM CP) (VR1 (human)) [%]	VR1 (human) (% stimulation compared to 10 μM CP) (VR1 (human)) [%]
O=C(Nc1ccccc1F)N1CCC2(CC1)CC(C(=O)N1CCN(c3ncccc3Cl)CC1)=NO2 [Example 1, 3-[4-(3-chloropyridin-2-yl)piperazine-1-carbonyl]-1-oxa-2,8-diazaspiro[4.5]dec-2-ene-8-carboxylic acid-(2-fluorophenyl)amide]	34.2	6.37	33.6	4.85				
O=C(Nc1ccc(Cl)cn1)C1=NOC2(CCN(C(=O)Nc3ccccc3Cl)CC2)C1 [Example 9, 1-oxa-2,8-diazaspiro[4.5]dec-2-ene-3,8-dicarboxylic acid-8-[(2-chlorophenyl)amide]-3-[(5-chloropyridin-2-yl)amide]]					45.63	0.23	26.23	−0.48
O=C(Nc1cccc(Br)c1)N1CCC2(CC1)CC(C(=O)N1CCN(c3ncccc3Cl)CC1)=NO2 [Example 11, 3-[4-(3-chloropyridin-2-yl)piperazine-1-carbonyl]-1-oxa-2,8-diazaspiro[4.5]dec-2-ene-8-carboxylic acid-(3-bromophenyl)amide]	41.3	11.4	37.3	-0.15				
COc1cccc(NC(=O)N2CCC3(CC2)CC(C(=O)NCc2ccc(OC)c(OC)c2)=NO3)c1 [Example 16, 1-oxa-2,8-diazaspiro[4.5]dec-2-ene-3,8-dicarboxylic acid-3-(3,4-dimethoxybenzylamide)-8-[(3-methoxyphenyl)amide]]					8.65	0.00	0.77	0.40
COc1cccc(NC(=O)N2CCC3(CC2)CC(C(=O)N2CCN(c4ncccc4Cl)CC2)=NO3)c1 [Example 17, 3-[4-(3-chloropyridin-2-yl)piperazine-1-carbonyl]-1-oxa-2,8-diazaspiro[4.5]dec-2-ene-8-carboxylic acid-(3-methoxyphenyl)amide]	46.9	19.8	53.7	19.5				
COc1cccc(NC(=O)N2CCC3(CC2)CC(C(=O)Nc2ccc(Cl)cn2)=NO3)c1 [Example 18, 1-oxa-2,8-diazaspiro[4.5]dec-2-ene-3,8-dicarboxylic acid-3-[(5-chloropyridin-2-yl)amide]-8-[(3-methoxyphenyl)amide]]					34.24	4.68	11.17	0.67

The next lines start with the values.

inhibition at 10 µM [1] [%]	activation at 10 µM [1] [%]	inhibition at 10 µM (VR1 (human)) [%]	activation at 10 µM (VR1 (human)) [%]	VR1 (rat) (% inhibition compared to 10 μM CP) [1] [%]	VR1 (rat) (% stimulation compared to 10 μM CP) [1] [%]	VR1 (human) (% inhibition compared to 10 μM CP) (VR1 (human)) [%]	VR1 (human) (% stimulation compared to 10 μM CP) (VR1 (human)) [%]	Structure (SMILES)
43.3	2.79	8.37	-0.66					O=C(Nc1cc(C(F)(F)F)ccc1Cl)N1CCC2(CC1)CC(C(=O)N1CCN(c3ncccc3Cl)CC1)=NO2 [Example 22, 3-[4-(3-chloropyridin-2-yl)piperazine-1-carbonyl]-1-oxa-2,8-diazaspiro[4.5]dec-2-ene-8-carboxylic acid-(2-chloro-5-trifluoromethylphenyl)amide]
45.9	0.63	27.6	0.08					O=C(Nc1ccc(Cl)c(C(F)(F)F)c1)N1CCC2(CC1)CC(C(=O)N1CCN(c3ncccc3Cl)CC1)=NO2 [Example 28, 3-[4-(3-chloropyridin-2-yl)piperazine-1-carbonyl]-1-oxa-2,8-diazaspiro[4.5]dec-2-ene-8-carboxylic acid-(4-chloro-3-trifluoromethylphenyl)amide]
86.2	6.21	51.9	-0.13					O=C(Nc1ccc(OC(F)(F)F)cc1)N1CCC2(CC1)CC(C(=O)N1CCN(c3ncccc3Cl)CC1)=NO2 [Example 34, 3-[4-(3-chloropyridin-2-yl)piperazine-1-carbonyl]-1-oxa-2,8-diazaspiro[4.5]dec-2-ene-8-carboxylic acid-(4-trifluoromethoxyphenyl)amide]
98.8	18.6	63.4	13.2					O=C(Nc1ccc(Cl)cc1)N1CCC2(CC1)CC(C(=O)N1CCN(c3ncccc3Cl)CC1)=NO2 [Example 51, 3-[4-(3-chloropyridin-2-yl)piperazine-1-carbonyl]-1-oxa-2,8-diazaspiro[4.5]dec-2-ene-8-carboxylic acid-(4-chlorophenyl)amide]
55.8	38.5	45.1	47.5					COc1ccc(NC(=O)N2CCC3(CC2)CC(C(=O)N2CCN(c4ncccc4Cl)CC2)=NO3)cc1 [Example 52, 3-[4-(3-chloropyridin-2-yl)piperazine-1-carbonyl]-1-oxa-2,8-diazaspiro[4.5]dec-2-ene-8-carboxylic acid-(4-methoxyphenyl)amide]
63.3	30.2	41.9	5.26					CSc1cccc(NC(=O)N2CCC3(CC2)CC(C(=O)N2CCN(c4ncccc4Cl)CC2)=NO3)c1 [Example 56, 3-[4-(3-chloropyridin-2-yl)piperazine-1-carbonyl]-1-oxa-2,8-diazaspiro[4.5]dec-2-ene-8-carboxylic acid-(3-methylsulphanylphenyl)amide]
